Tests used:
[1] = target: T1, BRAF G466V (Homo sapiens, UniProt P15056, G466V); assay: Cellular assay of target protein degradation, T-Rex 293 cells stably transfected with HA-BRAF G466V (HA immunofluorescence, high content imaging); format: cell-based; conditions: T-Rex 293 HA-BRAF G466V; for DC50: half maximal degradation, read-out: BRaf G466V DC50; for Dmax: maximum degradation observed
T1 construct: expressed in transfected cells
In short: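 HA-BRAF G466V levels were read by HA immunofluorescence and high-content imaging after 24 h compound exposure (final 30 nM–3 pM, 0.1% DMSO, 37 °C). Expression was induced with 0.75 ng/mL doxycycline. Outputs: half-maximal degradation concentration (DC50) and maximal degradation (Dmax) relative to control.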

[2] = target: T2, BRAF V600E (Homo sapiens, UniProt P15056, V600E); assay: Cellular assay of target protein degradation, T-Rex 293 cells stably transfected with HA-BRAF_V600E (HA immunofluorescence, high content imaging); format: cell-based; conditions: T-Rex 293 HA-BRAF V600E; for DC50: half maximal degradation, read-out: BRaf V600E DC50; for Dmax: maximum degradation observed
T2 construct: expressed in transfected cells
In short: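 HA immunofluorescence on fixed cells, imaged by high-content reader, measured loss of HA-BRAF V600E in stably transfected T-Rex 293 cells induced with 1 ng/mL doxycycline. Compounds were applied for 24 h at 37 °C (final 0.1 nM–1 μM, 0.1% DMSO); DC50 and Dmax (% of control) were reported.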

T1 sequence (P15056 whole entry G466V): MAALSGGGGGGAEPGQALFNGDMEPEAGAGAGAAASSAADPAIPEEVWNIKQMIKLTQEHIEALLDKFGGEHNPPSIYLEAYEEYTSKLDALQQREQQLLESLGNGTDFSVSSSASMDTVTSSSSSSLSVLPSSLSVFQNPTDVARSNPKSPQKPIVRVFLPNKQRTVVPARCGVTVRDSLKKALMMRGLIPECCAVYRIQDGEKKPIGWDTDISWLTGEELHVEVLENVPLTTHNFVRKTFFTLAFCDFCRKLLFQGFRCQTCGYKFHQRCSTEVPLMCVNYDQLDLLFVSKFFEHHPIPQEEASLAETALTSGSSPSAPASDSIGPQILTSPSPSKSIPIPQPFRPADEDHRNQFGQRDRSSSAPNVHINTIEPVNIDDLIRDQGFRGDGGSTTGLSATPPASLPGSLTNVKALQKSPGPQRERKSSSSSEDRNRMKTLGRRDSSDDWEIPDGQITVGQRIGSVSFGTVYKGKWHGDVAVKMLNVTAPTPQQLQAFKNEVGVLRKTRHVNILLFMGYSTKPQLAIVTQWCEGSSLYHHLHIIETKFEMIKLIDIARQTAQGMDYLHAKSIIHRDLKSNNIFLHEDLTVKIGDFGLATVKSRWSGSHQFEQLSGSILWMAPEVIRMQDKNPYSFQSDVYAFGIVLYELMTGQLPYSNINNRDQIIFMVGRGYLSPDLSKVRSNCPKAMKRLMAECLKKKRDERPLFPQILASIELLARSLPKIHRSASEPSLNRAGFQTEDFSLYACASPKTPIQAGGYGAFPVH
T2 sequence (P15056 whole entry V600E): as the sequence (P15056 whole entry G466V) above, with V466G, V600E counted along it

| DC50 [1] | Dmax [1] | DC50 [2] | Dmax [2] | Compound |
| --- | --- | --- | --- | --- |
| 1 to 10 nM | > 70% | 5 to 50 nM | 35 to 70% | O=C1CC[C@@H](N2Cc3cc(CC[C@@H](O)CN4CC5(C4)CN(c4ccc(-c6cnc7[nH]cc(C(=O)c8c(F)ccc(NS(=O)(=O)N9CC[C@@H](F)C9)c8F)c7c6)cc4)C5)ccc3C2=O)C(=O)N1 [Compound 328, (3R)-N-{3-[5-(4-{6-[(2R)-4-{2-[(3R)-2,6-dioxopiperidin-3-yl]-1-oxo-2,3-dihydro-1H-isoindol-5-yl}-2-hydroxybutyl]-2,6-diazaspiro[3.3]heptan-2-yl}phenyl)-1H-pyrrolo[2,3-b]pyridine-3-carbonyl]-2,4-difluorophenyl}-3-fluoropyrrolidine-1-sulfonamide] |
| 1 to 10 nM | > 70% | 5 to 50 nM | 35 to 70% | O=C1CCC(N2Cc3cc(OCCCCN4CCN(c5ccc(-c6cnc7[nH]cc(C(=O)c8c(F)ccc(NS(=O)(=O)N9CC[C@@H](F)C9)c8F)c7c6)cc5F)CC4)ccc3C2=O)C(=O)N1 (stereo partly drawn) [Compound 113, (3R)-N-[3-(5-{4-[4-(4-{[2-(2,6-dioxopiperidin-3-yl)-1-oxo-2,3-dihydro-1H-isoindol-5-yl]oxy}butyl)piperazin-1-yl]-3-fluorophenyl}-1H-pyrrolo[2,3-b]pyridine-3-carbonyl)-2,4-difluorophenyl]-3-fluoropyrrolidine-1-sulfonamide] |
| 1 to 10 nM | > 70% | 5 to 50 nM | 35 to 70% | O=C1CCC(N2Cc3cc(N4CC5(CN(CC6CCN(c7ccc(-c8cnc9[nH]cc(C(=O)c%10c(F)ccc(NS(=O)(=O)N%11CCC(F)(F)C%11)c%10F)c9c8)cc7)CC6)C5)C4)ccc3C2=O)C(=O)N1 (stereo not drawn) [Compound 246, N-[3-(5-{4-[4-({6-[2-(2,6-dioxopiperidin-3-yl)-1-oxo-2,3-dihydro-1H-isoindol-5-yl]-2,6-diazaspiro[3.3]heptan-2-yl}methyl)piperidin-1-yl]phenyl}-1H-pyrrolo [2,3-b]pyridine-3-carbonyl)-2,4-difluorophenyl]-3,3-difluoropyrrolidine-1-sulfonamide] |
| 10 to 30 nM | 35 to 70% | 50 to 500 nM | 35 to 70% | O=C1CCC(N2Cc3cc(OC4CC5(C4)CN(c4ccc(-c6cnc7[nH]cc(C(=O)c8c(F)ccc(NS(=O)(=O)N9CC[C@@H](F)C9)c8F)c7c6)cc4)C5)ccc3C2=O)C(=O)N1 (stereo partly drawn) [Compound 43, (3R)-N-(3-{5-[4-(6-{[2-(2,6-dioxopiperidin-3-yl)-1-oxo-2,3-dihydro-1H-isoindol-5-yl]oxy}-2-azaspiro[3.3]heptan-2-yl)phenyl]-1H-pyrrolo[2,3-b]pyridine-3-carbonyl}-2,4-difluorophenyl)-3-fluoropyrrolidine-1-sulfonamide] |
| 1 to 10 nM | > 70% | 5 to 50 nM | 35 to 70% | O=C1CCC(N2Cc3cc(CCCN4CC5(C4)CN(c4ccc(-c6cnc7[nH]cc(C(=O)c8c(F)ccc(NS(=O)(=O)N9CC[C@@H](F)C9)c8F)c7c6)cc4F)C5)ccc3C2=O)C(=O)N1 (stereo partly drawn) [Compound 310, (3R)-N-(3-{5-[4-(6-{3-[2-(2,6-dioxopiperidin-3-yl)-1-oxo-2,3-dihydro-1H-isoindol-5-yl]propyl}-2,6-diazaspiro[3.3]heptan-2-yl)-3-fluorophenyl]-1H-pyrrolo[2,3-b]pyridine-3-carbonyl}-2,4-difluorophenyl)-3-fluoropyrrolidine-1-sulfonamide] |
| 1 to 10 nM | > 70% | 5 to 50 nM | 35 to 70% | O=C1CCC(N2Cc3cc(CCCCN4CC5(C4)CN(c4ccc(-c6cnc7[nH]cc(C(=O)c8c(F)ccc(NS(=O)(=O)N9CC[C@@H](F)C9)c8F)c7c6)cc4)C5)ccc3C2=O)C(=O)N1 (stereo partly drawn) [Compound 321, (3R)-N-(3-{5-[4-(6-{4-[2-(2,6-dioxopiperidin-3-yl)-1-oxo-2,3-dihydro-1H-isoindol-5-yl]butyl}-2,6-diazaspiro[3.3]heptan-2-yl)phenyl]-1H-pyrrolo[2,3-b]pyridine-3-carbonyl}-2,4-difluorophenyl)-3-fluoropyrrolidine-1-sulfonamide] |
| 1 to 10 nM | 35 to 70% | 5 to 50 nM | 35 to 70% | O=C1CCC(N2Cc3cc(N4CCC(F)(CN5CC6(C5)CN(c5ccc(-c7cnc8[nH]cc(C(=O)c9c(F)ccc(NS(=O)(=O)N%10CC[C@@H](F)C%10)c9F)c8c7)cc5)C6)CC4)ccc3C2=O)C(=O)N1 (stereo partly drawn) [Compound 19, (3R)-N-[3-(5-{4-[6-({1-[2-(2,6-dioxopiperidin-3-yl)-1-oxo-2,3-dihydro-1H-isoindol-5-yl]-4-fluoropiperidin-4-yl}methyl)-2,6-diazaspiro[3.3]heptan-2-yl]phenyl}-1H-pyrrolo[2,3-b]pyridine-3-carbonyl)-2,4-difluorophenyl]-3-fluoropyrrolidine-1-sulfonamide] |
| 1 to 10 nM | > 70% | 5 to 50 nM | 35 to 70% | CNc1cc(-c2cnc3[nH]cc(C(=O)c4c(F)ccc(NS(=O)(=O)N5CC[C@@H](F)C5)c4F)c3c2)cc(NC)c1N1CCC(CN2CCC(c3ccc4c(c3)CN([C@H]3CCC(=O)NC3=O)C4=O)CC2)CC1 [Compound 284, (3R)-N-{3-[5-(4-{4-[(4-{2-[(3S)-2,6-dioxopiperidin-3-yl]-1-oxo-2,3-dihydro-1H-isoindol-5-yl}piperidin-1-yl)methyl]piperidin-1-yl}-3,5-bis(methylamino)phenyl)-1H-pyrrolo[2,3-b]pyridine-3-carbonyl]-2,4-difluorophenyl}-3-fluoropyrrolidine-1-sulfonamide] |
| 1 to 10 nM | 35 to 70% | 5 to 50 nM | < 35% | O=C1CC[C@H](N2Cc3cc(N4CCC(CN5CCN(C6(c7ncc(-c8cnc9[nH]cc(C(=O)c%10c(F)ccc(NS(=O)(=O)N%11CC[C@@H](F)C%11)c%10F)c9c8)cn7)CC6)CC5)CC4)ccc3C2=O)C(=O)N1 [Compound 201, (3R)-N-[3-[5-[2-[1-[4-[[1-[2-[(3S)-2,6-dioxo-3-piperidyl]-1-oxo-isoindolin-5-yl]-4-piperidyl]methyl]piperazin-1-yl]cyclopropyl]pyrimidin-5-yl]-1H-pyrrolo[2,3-b]pyridine-3-carbonyl]-2,4-difluoro-phenyl]-3-fluoro-pyrrolidine-1-sulfonamide] |
| > 30 nM | – | > 500 nM | – | O=C1CCC(N2Cc3cc(N4CC[C@@H]4COc4ccc(-c5cnc6[nH]cc(C(=O)c7c(F)ccc(NS(=O)(=O)N8CC[C@@H](F)C8)c7F)c6c5)cc4)ccc3C2=O)C(=O)N1 (stereo partly drawn) [Compound 15, (3R)-N-{3-[5-(4-{[(2R)-1-[2-(2,6-dioxopiperidin-3-yl)-1-oxo-2,3-dihydro-1H-isoindol-5-yl]azetidin-2-yl]methoxy}phenyl)-1H-pyrrolo[2,3-b]pyridine-3-carbonyl]-2,4-difluorophenyl}-3-fluoropyrrolidine-1-sulfonamide] |
| 1 to 10 nM | > 70% | 5 to 50 nM | 35 to 70% | COc1cc(N2CC3(CN(CC4CCN(c5ccc(-c6cnc7[nH]cc(C(=O)c8c(F)ccc(NS(=O)(=O)N9CC[C@@H](F)C9)c8F)c7c6)cc5)CC4)C3)C2)cc(F)c1C(=O)N[C@H]1CCC(=O)NC1=O [Compound 347, 4-(6-{[1-(4-{3-[2,6-difluoro-3-({[(3R)-3-fluoropyrrolidin-1-yl]sulfonyl}amino)benzoyl]-1H-pyrrolo[2,3-b]pyridin-5-yl}phenyl)piperidin-4-yl]methyl}-2,6-diazaspiro[3.3]heptan-2-yl)-N-[(3S)-2,6-dioxopiperidin-3-yl]-2-fluoro-6-methoxybenzamide] |
| 1 to 10 nM | > 70% | 50 to 500 nM | 35 to 70% | O=C1CCC(N2Cc3cc(C4CCN(CCc5ccc(-c6cnc7[nH]cc(C(=O)c8c(F)ccc(NS(=O)(=O)N9CC[C@@H](F)C9)c8F)c7c6)cc5)[C@H](CO)C4)ccc3C2=O)C(=O)N1 (stereo partly drawn) [Compound 149, (3R)-N-{3-[5-(4-{2-[(2S)-4-[2-(2,6-dioxopiperidin-3-yl)-1-oxo-2,3-dihydro-1H-isoindol-5-yl]-2-(hydroxymethyl)piperidin-1-yl]ethyl}phenyl)-1H-pyrrolo[2,3-b]pyridine-3-carbonyl]-2,4-difluorophenyl}-3-fluoropyrrolidine-1-sulfonamide] |
| 1 to 10 nM | > 70% | 5 to 50 nM | 35 to 70% | CNc1cc(-c2cnc3[nH]cc(C(=O)c4c(F)ccc(NS(=O)(=O)N5CC[C@@H](F)C5)c4F)c3c2)ccc1N1CCC(CN2CCC(c3ccc4c(c3)CN(C3CCC(=O)NC3=O)C4=O)CC2)CC1 (stereo partly drawn) [Compound 257, (3R)-N-[3-(5-{4-[4-({4-[2-(2,6-dioxopiperidin-3-yl)-1-oxo-2,3-dihydro-1H-isoindol-5-yl]piperidin-1-yl}methyl)piperidin-1-yl]-3-(methylamino)phenyl}-1H-pyrrolo[2,3-b]pyridine-3-carbonyl)-2,4-difluorophenyl]-3-fluoropyrrolidine-1-sulfonamide] |
| 1 to 10 nM | 35 to 70% | 5 to 50 nM | 35 to 70% | O=C1CC[C@H](N2Cc3cc(N4CCC(CN5CCN(c6ccc(-c7cnc8[nH]cc(C(=O)c9c(F)ccc(NS(=O)(=O)N%10CC[C@@H](F)C%10)c9F)c8c7)cc6)CC5)CC4)c(F)cc3C2=O)C(=O)N1 [Compound 40, (3R)-N-{3-[5-(4-{4-[(1-{2-[(3S)-2,6-dioxopiperidin-3-yl]-6-fluoro-1-oxo-2,3-dihydro-1H-isoindol-5-yl}piperidin-4-yl)methyl]piperazin-1-yl}phenyl)-1H-pyrrolo[2,3-b]pyridine-3-carbonyl]-2,4-difluorophenyl}-3-fluoropyrrolidine-1-sulfonamide] |

From patent publication US12180193B2, “Accelerating fibrosarcoma protein degrading compounds and associated methods of use” (Arvinas Operations, Inc., priority 2020, dated 2024)
